Experimental data reported in PMC11695631 (Nature Communications, 2025).

Biological target: Vesicular monoamine transporter 2 (VMAT2) (Homo sapiens, UniProt Q05940)
Assay: cryo-EM structure at […] Å
Assay type: cell-based

Sequence of Vesicular monoamine transporter 2 (VMAT2) (Q05940 12-514): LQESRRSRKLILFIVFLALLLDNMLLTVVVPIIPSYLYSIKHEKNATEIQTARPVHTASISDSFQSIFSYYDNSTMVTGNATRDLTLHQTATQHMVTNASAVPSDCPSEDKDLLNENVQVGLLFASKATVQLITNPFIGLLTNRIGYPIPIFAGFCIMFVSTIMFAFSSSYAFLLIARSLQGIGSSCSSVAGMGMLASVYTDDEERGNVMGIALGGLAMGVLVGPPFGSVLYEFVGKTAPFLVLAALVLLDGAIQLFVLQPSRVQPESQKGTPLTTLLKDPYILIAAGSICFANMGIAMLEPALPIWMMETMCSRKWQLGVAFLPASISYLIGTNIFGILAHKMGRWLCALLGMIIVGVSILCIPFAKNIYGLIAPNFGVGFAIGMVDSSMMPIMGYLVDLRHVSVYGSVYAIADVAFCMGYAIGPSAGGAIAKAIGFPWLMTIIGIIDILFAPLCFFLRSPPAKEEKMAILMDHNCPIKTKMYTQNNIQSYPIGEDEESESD

IC50: 20.4 ± 4.1 nM
SMILES: COc1cc2c(cc1OC)C1CC(=O)C(CC(C)C)CN1CC2 (stereo not shown) [TBZ, tetrabenazine]
